The values below come from PMC2808703 (Bioorganic & medicinal chemistry, 2009).

As a reminder, the IC50 is the point on the concentration scale where inhibition reaches its midpoint.

Read-outs that look alike come from different tables or passages of the source.

The test system of one data set is Caco-2. Conditions: curated dataset; cited from earlier work.
Data set [1] deals with phospho-Akt in BxPC-3 pancreatic cancer cells. Description: Cell inhibition of phospho-Akt in BxPC-3 pancreatic cancer cells. In kind it is cell-based. Conditions: for IC50: Homo sapiens, BXPC-3, read-out: IC50 (Akt inhibition).
The test system is the same in data set [2]. Particulars: hits experimentally tested and confirmed active; cited from earlier work.

As for `CO/N=C(\C(=O)N[C@@H]1C(=O)N2C(C(=O)O)=C(CSc3nc(=O)c(O)nn3C)CS[C@H]12)c1csc(N)n1` [cerftriaxone], the “Caco-2 permeability, experimental” value with Caco-2 was 0.13 ×10⁻⁶ cm/s.

Regarding `CCCCCCCCCC(=O)Nc1ccc(S(=O)(=O)Nc2nncs2)cc1` [Compound 13], the IC50 in data set [1] worked out at 10 µM. `COc1cccc2c1C(=O)c1c(O)c3c(c(O)c1C2=O)C[C@@](O)(C(=O)CO)C[C@@H]3O[C@H]1C[C@H](N)[C@H](O)[C@H](C)O1` [doxorubicin]: the “Caco-2 permeability, experimental” value with Caco-2 was 0.16 ×10⁻⁶ cm/s. On to `Cc1nnc(NS(=O)(=O)c2ccc(NS(=O)(=O)c3ccc4ccccc4c3)cc2)s1` [Compound 9], for which, in data set [2], the IC50 is 20 µM. For the compound `CC(=O)Nc1ccc(S(=O)(=O)Nc2nncs2)cc1` [Compound 11], the “IC50 (Akt inhibition)” value in data set [1] (BxPC-3 cells, phospho-Akt) was “no activity”. For the same compound, the IC50 in data set [1] is more than 50 µM. Consider `C[C@H]1[C@H](OC(=O)CCC(=O)O)O[C@@H]2O[C@@]3(C)CC[C@H]4[C@H](C)CC[C@@H]1[C@@]24OO3` [sodium artesunate], for which, in the data set on Caco-2, the “Caco-2 permeability, experimental” value is 3.98 ×10⁻⁶ cm/s. Turning to `CN1CCN(CC(=O)N2c3ccccc3C(=O)Nc3cccnc32)CC1` [pirenzepine], the “Caco-2 permeability, experimental” value in the data set on Caco-2 was 0.437 ×10⁻⁶ cm/s. `CC(C)Cc1ccc(C(C)C(=O)O)cc1` (stereo not shown) [ibuprofen]: in the data set on Caco-2, the “Caco-2 permeability, experimental” value was 52.5 ×10⁻⁶ cm/s. Turning to `COCCOCCOCC(=O)Nc1ccc(S(=O)(=O)Nc2nncs2)cc1` [Compound 12], in data set [1], the half-maximal inhibitory concentration (IC50) is more than 50 µM.
